According to patent publication US20120053235A1, “Dihydromyricetin as an IKK-beta inhibitor used for treatment of arthritis, cancer and autoimmune conditions, and other diseases or disorders” (HONG KONG BAPTIST UNIVERSITY, priority 2010, published 2012):

What was measured:
[1] = system: isolated human T lymphocytes; test: T cells proliferation assay (BrdU ELISA); format: cell-based; settings: stimulated with anti-OKT 3/anti-CD28 or PMA/ionomycin, 72 hours; FIGS. 2A and 2B
Description: The isolated human T lymphocytes (1×10^5 cells/well) were stimulated with anti-OKT 3/anti-CD28 antibodies or PMA/ionomycin (P/I) in the presence or absence of DMY for 72 hours.
5-bromo-2′-deoxy-uridine (BrdU, Roche) was added to the cells at the 14th hour before the end of stimulation and it could be incorporated into the DNA of the growing cells during the labeling period. The amount of BrdU incorporated into DNA was quantified as an indicator of cell proliferation. BrdU was determined by ELISA according to manufacturer's instructions.

[2] = system: IL-2 production in human T-cell; test: IL-2 ELISA of culture supernatants of stimulated T cells; format: cell-based; design: dose or concentration left out as unconfirmed; settings: DMY; P/I or anti-OKT-3/anti-CD28 for 48 hours; FIGS. 3A and 3B
Description: The cells (1×10^5/well) were incubated in the presence or absence of DMY for 2 hours at the indicated concentrations, and then the cells were stimulated with P/I or anti-OKT-3/anti-CD28 for 48 hours. The cell-free culture supernatants were collected, and then the concentration of IL-2 in the supernatants was determined by ELISA method.

human recombinant IKK-β = target: T1, human recombinant IKK-β (Homo sapiens, UniProt O14920); test: IKK-β competition assay (dot blot with biotin-DMY); format: binding; settings: 100 μM biotin-DMY, 0, 1 and 5 folds of parental compound; FIG. 5A
T1 sequence (O14920 1-756): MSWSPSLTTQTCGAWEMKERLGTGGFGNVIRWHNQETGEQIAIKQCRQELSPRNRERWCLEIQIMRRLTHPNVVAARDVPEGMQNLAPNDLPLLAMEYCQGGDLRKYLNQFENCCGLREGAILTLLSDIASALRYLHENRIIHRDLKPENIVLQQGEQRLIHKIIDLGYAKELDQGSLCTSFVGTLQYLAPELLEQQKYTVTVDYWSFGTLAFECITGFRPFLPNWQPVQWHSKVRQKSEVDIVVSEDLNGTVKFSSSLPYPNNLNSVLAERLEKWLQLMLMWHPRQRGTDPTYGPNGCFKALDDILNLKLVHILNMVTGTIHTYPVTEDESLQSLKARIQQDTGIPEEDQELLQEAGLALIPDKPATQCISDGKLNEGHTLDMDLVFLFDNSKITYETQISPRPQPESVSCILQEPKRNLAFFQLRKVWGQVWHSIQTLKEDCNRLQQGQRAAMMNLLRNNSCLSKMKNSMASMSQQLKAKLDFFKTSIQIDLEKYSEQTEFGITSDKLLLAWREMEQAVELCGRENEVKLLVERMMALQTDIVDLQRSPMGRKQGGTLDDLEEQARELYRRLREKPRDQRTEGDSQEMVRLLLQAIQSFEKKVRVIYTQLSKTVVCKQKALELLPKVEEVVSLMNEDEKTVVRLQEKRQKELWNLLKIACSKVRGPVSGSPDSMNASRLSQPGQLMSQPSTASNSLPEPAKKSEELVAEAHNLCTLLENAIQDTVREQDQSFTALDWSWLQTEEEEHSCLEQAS
Description: 5 ng of human recombinant IKK-β was incubated with 100 μM of the biotin-DMY in the presence of 0, 1, and 5 folds of concentration of its parental compound. The mixture was dropped on the nitrocellulose membranes, and then detected with streptavidin horseradish peroxidase. The binding signal was then detected by using ECL.

[3] = system: NF-κB-Luciferase reporter in Jurkat T cells; test: NF-κB reporter assay (luciferase); format: cell-based; settings: 20 ng/ml PMA plus 1 μM ionomycin, 6 hours; FIG. 6B
Description: The Jurkat T cells are transiently transfected with NF-κB-Luciferase reporter plasmid with lipofectamine LTX (Invitrogen). The transfected cells were treated with 20 ng/ml PMA plus 1 μM ionomycin in the presence or absence of biotin-DMY for 6 hours. The cells were then lysed in Passive Lysis Buffer (Promega) and the transcriptional activity was determined by measuring the activity of firefly luciferase in a microplate luminometer (Perkin Elmer) using Luciferase Reporter Assay (Promega).

[4] = system: p38 kinase phosphorylation; test: Phosphorylation of MAPKs (Western blot): p38; format: cell-based, human; settings: PMA plus ionomycin 10 minutes; FIG. 7
Description: For determination of the phosphorylation of mitogen-activated protein kinases expression, the cells were stimulated by 20 ng/ml PMA plus […] ionomycin for 10 minutes. The whole-cell lysates were prepared by lysing the harvested T cells with lysis buffer (50 mM Tris-HCl, pH 7.5, 250 mM NaCl, 5 mM EDTA, 1 mM DTT, 1% Triton, 50 mM NaF, 1 mM sodium orthovanadate, 0.5 mM PMSF and 1× protease inhibitor mix, Roche).
Protein concentrations were determined by using Bio-Rad Protein assay. Equal amounts of nuclear proteins or whole-cell lysates were analyzed by 10% SDS-PAGE. After electrophoresis, the proteins were electro-transferred to the nitrocellulose membranes. After proteins were transferred, the membranes were blocked by 5% dried milk for 60 minutes and then washed three times for 5 min in each washing interval with TBS-T. The membranes were incubated with corresponding primary antibodies overnight at 4° C. and then washed with three times with TBS-T. Afterwards, the membranes were incubated again with HRP-conjugated secondary antibodies for 60 minutes. The blots were developed using the ECL.

[5] = system: c-Fos nuclear localization in HeLa cells; test: Nuclear localization of c-Fos (immunofluorescence); format: cell-based; settings: DMY 2 hours then PMA plus ionomycin 2 hours, FIGS. 7 and 8
Description: HeLa cells (1×10^5) were seeded on the 6-well plates with cover slips and cultured overnight. The cells were treated with DMY for 2 hours at 37° C and then stimulated with or without 20 ng/ml PMA plus 1 μM ionomycin for another 2 hours. After stimulation, the cells were fixed with 4% paraformaldehyde for 15 minutes at room temperature and permeabilized by 0.1% Triton X-100 and then stained with phalloidin (Invitrogen) for 3 minutes. The cells were incubated with c-Fos antibody for 2 hour after being stained with phalloidin, and the cells were then incubated with FITC-linked secondary antibody for 1 hour after being washed with PBS for 3 times. The slides were dried in air and mounted onto the glass slides.

SMILES: O=C1c2c(O)cc(O)cc2O[C@H](c2cc(O)c(O)c(O)c2)[C@H]1O [DMY, dihydromyricetin]
- T cell proliferation [1]: block T cell proliferation
- production of IL-2 [2]: suppress the production of IL-2
- competition with biotin-DMY for binding to IKK-β (human recombinant IKK-β): can compete with biotin-DMY
- NF-κB transcriptional activity [3]: significantly suppressed
- p38 kinase phosphorylation [4]: suppressed
- c-Fos nuclear localization [5]: suppress c-Fos nuclear localization
